Results taken from publication PMC9709777, “Enzyme-instructed morphology transformation of mitochondria-targeting peptide for the selective eradication of osteosarcoma” (RSC Chemical Biology, 2022).
Read-outs that look alike come from different tables or passages of the source.

What was measured:
[1] = Cell viability in the presence of ALP inhibitor NBT-BCIP; assay type: cell-based; details: co-treatment with NBT-BCIP solution
Protocol: (§1) To confirm that the cytotoxicity of L-Mito-FFYp stems from its selectivity toward ALP and the consequent morphology transformation, the cytotoxicity was evaluated toward Saos-2, HeLa, SK-BR-3, and NIH-3T3 cell lines. SK-BR-3 and NIH-3T3 cell lines are known to express fewer ALP enzymes. […] And the cytotoxicity of L-Mito-FFYp in the Saos-2 cell line was analyzed in the presence and absence of endocytosis inhibitors such as chlorpromazine (clathrin), sucrose (macropinocytosis), and M-β-cyclodextrin (caveolin). […] To further verify the important role of the phosphate moiety, we synthesized L-Mito-FFY compound (Fig. S2, ESI ^†). […] After phosphoric acid was cleaved by the ALP enzyme overexpressed in the Saos-2 cell membrane, Mito-FFY was accumulated in the mitochondria. As a result, apoptosis occurred due to mitochondrial membrane disruption induced by self-assembled fibers inside the mitochondria.
Figure S14. Cell viability analysis of Mito-FFYp in the presence of ALP inhibitor, NBT-BCIP.
(1 picture or pasted object on this page, not shown here)

[2] = TEM analysis of self-assembled morphology, with and without ALP enzyme; assay type: physicochemical; details: 15 μM, before ALP treatment
Protocol: L-Mito-FFYp consists of a tripeptide backbone Phe–Phe–Tyrp (Tyrp stands for tyrosine phosphate) in which pyrene butyric acid is capped on the N-terminus to promote the self-assembly and TPP is conjugated to the amine group of the lysine side chain for targeting the mitochondria (Fig. S1, ESI ^†). The CAC of L-Mito-FFYp was determined to be 12 μM via pyrene excitation method (Fig. 1A). […] The EIMT of L-Mito-FFYp was investigated by treating it with ALP enzyme. After 24 h incubation (37 °C), fibers having a diameter of ca. 10 nm were observed via transmission electron microscopy (TEM) analysis (Fig. 1D). Specifically, micelles with a diameter of 53 nm were converted into fibers with a diameter of 12.9 nm, most likely by the action of the ALP enzyme. To confirm that the fiber structure corresponded to L-Mito-FFY, L-Mito-FFY was separately synthesized and purified (Fig. S2A and B, ESI ^†). It was supposed after the phosphate group cleaved from the ALP enzyme. The L-tyrosine phosphate was replaced with L-tyrosine. Its self-assembled morphology was analyzed via TEM. […]
(§2) Imaging of apoptosis/necrosis-dependent cell death. […] The cells were then washed gently, the medium was replaced with DMEM medium, and the cells were analyzed using an LSM780 laser confocal scanning microscope. […]

Saos-2 cells = assay: FITC-annexin V/PI assay (confocal imaging and FACS) for mechanism of cell death; assay type: cell-based; details: FITC-annexin V/PI staining
Protocol: as §1
Fig. 3 (A) Cell viability analysis of L-Mito-FFYp in Saos-2, HeLa, SK-BR-3 and NIH 3T3 cell lines for an incubation time of 48 h. […] They are left out because Control is not a substance, and the digits are not readable with certainty […]
as §2

HeLa cells = assay: Cell viability, MTT assay; assay type: cell-based; details: 48 h incubation, read-out: Concentration at which 50% viability was observed
Protocol: as §1
(§3) Fig. 3 (A) Cell viability analysis of L-Mito-FFYp in Saos-2, HeLa, SK-BR-3 and NIH 3T3 cell lines for an incubation time of 48 h. (B) Cell viability analysis of L-Mito-FFYp in the presence of different endocytosis inhibitos. […] (E) Western blotting analysis showing the release of cytochrome C after treatment with L-Mito-FFYp. […]

NIH-3T3 cell line = assay: Cell viability, MTT assay; assay type: cell-based; details: NIH 3T3, 10 μM, 48 h incubation
Protocol: as §1, §3

[3] = Surface charge (zeta potential) analysis; assay type: physicochemical; details: 15 μM solution (over the CAC value)
cytochrome C = assay: Western blotting of cytochrome C release; assay type: cell-based; details: western blotting after treatment
Protocol: as §1
Fig. 3 (A) Cell viability analysis of L-Mito-FFYp in Saos-2, HeLa, SK-BR-3 and NIH 3T3 cell lines for an incubation time of 48 h. (B) Cell viability analysis of L-Mito-FFYp in the presence of different endocytosis inhibitos. […] (E) Western blotting analysis showing the release of cytochrome C after treatment with L-Mito-FFYp. […] They are left out because Control is not a substance, and the digits are not readable with certainty

Saos-2 cell line [4] = assay: Cellular ROS by dihydroethidium (DHE) staining, confocal microscopy and flow cytometry; assay type: cell-based; details: Saos-2, DHE staining, 20 μM
SK-BR-3 cell line = assay type: cell-based; details: 48 h, 10 μM
Protocol: as §1
(§4) Fig. 3 (A) Cell viability analysis of L-Mito-FFYp in Saos-2, HeLa, SK-BR-3 and NIH 3T3 cell lines for an incubation time of 48 h. (B) Cell viability analysis of L-Mito-FFYp in the presence of different endocytosis inhibitos. […] (E) Western blotting analysis showing the release of cytochrome C after treatment with L-Mito-FFYp. TEXT PRINTED IN THE PICTURE: (D) Mito-FFYp: Q1 0.91; Q2 26.4; Q3 8.97; Q4 63.7 DOUBTS OF THE COPYIST ABOUT THIS PICTURE: Mito-FFYp, panel D, Q1: very small blurred print, 0.91 uncertain (could be 0.51 or 0.61) / Mito-FFYp, panel D, Q2: very small blurred print, 26.4 uncertain (6 could be 5 or 8) / Mito-FFYp, panel D, Q3: very small blurred print, 8.97 uncertain (could be 6.97 or 8.57) / Mito-FFYp, panel D, Q4: very small blurred print, 63.7 uncertain (could be 65.7 or 83.7) / Panel D, Control plot also prints quadrant numbers (about Q1 0.090, Q2 0.24, Q3 0.078, Q4 99.6). […]
(§5) M. T. Jeena,‡a Seongeon Jin,‡ a Batakrishna Jana,a and Ja-Hyoung Ryu,*a Materials. All peptides were synthesized manually on a […] scale. The products were purified by high-performance liquid chromatography (HPLC, Agilent Technologies, USA) with a C-18 reverse column in ACN/water mixture. […]

Saos-2 cell line [5] = assay type: cell-based
Protocol: as §1, §4, §5

[6] = CAC determination by pyrene excitation method; assay type: physicochemical
Protocol: L-Mito-FFYp consists of a tripeptide backbone Phe–Phe–Tyrp (Tyrp stands for tyrosine phosphate) in which pyrene butyric acid is capped on the N-terminus to promote the self-assembly and TPP is conjugated to the amine group of the lysine side chain for targeting the mitochondria (Fig. S1, ESI ^†). The CAC of L-Mito-FFYp was determined to be 12 μM via pyrene excitation method (Fig. 1A). […] The EIMT of L-Mito-FFYp was investigated by treating it with ALP enzyme. After 24 h incubation (37 °C), fibers having a diameter of ca. 10 nm were observed via transmission electron microscopy (TEM) analysis (Fig. 1D). Specifically, micelles with a diameter of 53 nm were converted into fibers with a diameter of 12.9 nm, most likely by the action of the ALP enzyme. To confirm that the fiber structure corresponded to L-Mito-FFY, L-Mito-FFY was separately synthesized and purified (Fig. S2A and B, ESI ^†). It was supposed after the phosphate group cleaved from the ALP enzyme. The L-tyrosine phosphate was replaced with L-tyrosine. Its self-assembled morphology was analyzed via TEM. Similar fibers with a diameter of 10 nm were observed (Fig. S3, ESI ^†), confirming that ALP transforms the L-Mito-FFYp micelles into L-Mito-FFY fibers.
Fig. 1 (A) CAC determination of L-Mito-FFYp using pyrene excitation method. […]

NC(=O)[C@H](CCCCNCCCCCC[P+](c1ccccc1)(c1ccccc1)c1ccccc1)NC(=O)[C@H](Cc1ccc(OP(=O)(O)O)cc1)NC(=O)[C@H](Cc1ccccc1)NC(=O)[C@H](Cc1ccccc1)NC(=O)CCCc1ccc2ccc3cccc4ccc1c2c34 [L-Mito-FFYp]
Toxicity in the presence of ALP inhibitor [1]: remarkably reduced
Micelle diameter [2]: 53 nm
Mechanism of cell death (Saos-2 cells): late apoptosis
IC50 (HeLa cells): ~5 µM
Cell viability (NIH-3T3 cell line): ~90%
Surface charge (zeta potential) [3]: −25.6 ± 0.32 mV
Cytochrome C release from the mitochondria (cytochrome C): released
Cellular ROS (Saos-2 cell line [4]): overproduction of ROS
Cell viability (SK-BR-3 cell line): ~90%
IC50 (Saos-2 cell line [5]; Saos-2, 48 h incubation, MTT, read-out: Concentration at which 50% viability was observed): ~5 µM
IC50 (Saos-2 cell line [5]; human): ~10 µM
Critical Aggregation Concentration (CAC) [6]: 12 µM
